The subject of this assay is MPXV strain hMPXV/USA/MA001/2022 (Lineage B.1, Clade IIb). The assay is classed as cell-based, Mpox virus (MPXV).
For `CCN1CCN(Cc2ccc(-c3cc4c(N[C@H](C)c5ccccc5)ncnc4[nH]3)cc2)CC1` [NKIL-AEE788 (NVP-AEE788), AEE788], the “Duplicate of Duplicate of Hits: No CPE” value was 1.

On to `Cc1c(=O)n(C)c(Nc2ccc(I)cc2F)c2c(=O)n(C3CC3)c(=O)n(-c3cccc(N)c3)c12` [MC-GSK1790627, GSK1790627], for which the “Duplicate of Duplicate of Hits: No CPE” value is on record as 1. Turning to `CNC(=O)c1ccccc1Nc1cc(Nc2ccc(N3CCN(CC(=O)N[C@H](C(=O)N4C[C@H](O)C[C@H]4C(=O)N[C@@H](C)c4ccc(-c5scnc5C)cc4)C(C)(C)C)CC3)cc2OC)ncc1C(F)(F)F` [MC-GSK215, GSK215], the “Duplicate of Duplicate of Hits: No CPE” value is on record as 1.

As for `CCN1CCN(Cc2ccc(NC(=O)c3ccc(C)c(/C=C/c4cnc5[nH]ccc5c4OC)c3)cc2C(F)(F)F)CC1` [MC-HG6-64-1, HG6-64-1], the “Duplicate of Duplicate of Hits: No CPE” value was 1. Consider `C=CC(=O)Nc1cc2c(Nc3ccc(F)c(Cl)c3)ncnc2cc1C#CC(C)(C)N1CCN(C)CC1` [MC-AV-412 (free base), AV-412 (free base)], for which the “Duplicate of Duplicate of Hits: No CPE” value is 1. Take `CCN1CCC(Nc2ccc3c(c2)/C(=C(\c2cccc(F)c2)c2ncc(C)[nH]2)C(=O)N3)CC1` [MC-Tyrosine kinase-IN-1, Tyrosine kinase-IN-1]: the “Duplicate of Duplicate of Hits: No CPE” value is on record as 1. For “(S)-Sunvozertinib [MC-(S)-Sunvozertinib]” the value was 1. As to `O=C(N/N=C/c1c(O)ccc2ccccc12)c1cc(-c2ccc3ccccc3c2)n[nH]1` [MC-SKI-I, SKI-I], the “Duplicate of Duplicate of Hits: No CPE” value was found to be 1. With `N[C@H]1CC[C@H](Nc2nc(Nc3ccc(C(=O)N4CCCCC4)cc3)c3ncn(-c4cccc(F)c4)c3n2)CC1` [MC-Purfalcamine, Purfalcamine], the “Duplicate of Duplicate of Hits: No CPE” value was 1. For `Cc1c(CN2CCN(S(C)(=O)=O)CC2)sc2c(N3CCOCC3)nc(-c3cnc(N)nc3)nc12` [MC-GNE-477, GNE-477] the value was 1; for `O=C1Nc2ccc3ncsc3c2/C1=C/c1cnc[nH]1` [MC-PKR-IN-C16, PKR-IN-C16], 1; for `O=C(c1ccc(F)c(F)c1Nc1ccc(I)cc1F)N1CC(O)([C@@H]2CCCCN2)C1` (racemic) [MC-Cobimetinib (racemate), Cobimetinib (racemate)], 1. Turning to `C=CC(=O)N1CCC[C@@H](n2nc(-c3ccc(Oc4ccccc4)cc3)c(C(N)=O)c2N)C1` [MC-Btk inhibitor 2, Btk inhibitor 2], the “Duplicate of Duplicate of Hits: No CPE” value turned out to be 1. With `COc1cc2ncnc(Nc3cccc(Br)c3)c2cc1OC` [MC-PD153035, PD153035], the “Duplicate of Duplicate of Hits: No CPE” value is 1. For the compound `C#Cc1cccc(Nc2ncnc3cc(OC)c(OCCCN4CCOCC4)cc23)c1` [MC-NRC-2694, NRC-2694], the “Duplicate of Duplicate of Hits: No CPE” value is on record as 1. Regarding `CCOc1cc2ncc(C#N)c(Nc3ccc(OCc4ccccn4)c(Cl)c3)c2cc1NC(=O)/C=C/CN(C)C` [MC-Neratinib, Neratinib], the “Duplicate of Duplicate of Hits: No CPE” value worked out at 1. Take `C=CC(=O)Nc1cc(Nc2nccc(-c3cn(C4CC4)c4ccccc34)n2)c(OC)cc1N(C)CCN(C)C.CS(=O)(=O)O` [MC-Almonertinib (mesylate), Almonertinib (mesylate)]: the “Duplicate of Duplicate of Hits: No CPE” value is recorded as 1.

Take `Cc1cc(C(=O)Nc2nc3cccc(Cl)c3n2[C@@H]2CCCCN(C(=O)/C=C/CN(C)C)C2)ccn1` [MC-Nazartinib, Nazartinib]: the “Duplicate of Duplicate of Hits: No CPE” value is 1.

In the case of `CN1CCN(c2ccc(Nc3ncc4nc(Nc5ccccc5)n([C@@H]5CCN(S(=O)(=O)C6CC6)C5)c4n3)cc2)CC1` [MC-EGFR-IN-11, EGFR-IN-11], the “Duplicate of Duplicate of Hits: No CPE” value worked out at 1.

For `Cc1cccc([C@@H](CO)NC(=O)[C@@H](C)N2Cc3ccc(-c4nc(NC5CCOCC5)ncc4Cl)cc3C2=O)c1` [MC-ERK1/2 inhibitor 1, ERK1/2 inhibitor 1], the “Duplicate of Duplicate of Hits: No CPE” value is on record as 1. Turning to `Nc1ccc(-c2ccc3ncc4ccc(=O)n(-c5cccc(C(F)(F)F)c5)c4c3c2)cn1` [NKIL-Torin 2, Torin 2], the “Duplicate of Duplicate of Hits: No CPE” value stood at 1.

`C=CC(=O)Nc1cccc(-n2c(=O)cc(C)c3cnc(Nc4ccc(OCCN(C)C)cc4OC)nc32)c1.O=C(O)C(F)(F)F` [MC-EGFR-IN-1 (TFA), EGFR-IN-1 (TFA)]: the “Duplicate of Duplicate of Hits: No CPE” value is on record as 1. Consider `O=C(NOCC(O)CO)c1cc(Br)c(F)c(F)c1Nc1ccc(I)cc1F` (stereo not drawn) [NKIL-PD318088, PD318088], for which the “Duplicate of Duplicate of Hits: No CPE” value is reported as 1.

Take `CCOc1cc2ncc(C#N)c(Nc3ccc(OCc4ccccn4)c(Cl)c3)c2cc1NC(=O)/C=C/CN(C)C.O=C(O)/C=C\C(=O)O` [MC-Neratinib (maleate), Neratinib (maleate)]: the “Duplicate of Duplicate of Hits: No CPE” value worked out at 1. The same measure for `CCOc1cc2ncc(C#N)c(Nc3ccc(OCc4cccc(F)c4)c(Cl)c3)c2cc1NC(=O)/C=C/CN(C)C` [MC-HKI-357, HKI-357]: 1; for `CN(C)C/C=C/C(=O)Nc1cc2c(Nc3ccc(F)c(Cl)c3)ncnc2cc1O[C@H]1CCOC1` [NKIL-Afatinib (BIBW2992), Afatinib]: 1; for `COCc1c(-c2ccc(NC(=O)Nc3cc(C(F)(F)F)ccc3F)c(F)c2)c2c(N)ncnn2c1CN1CCOCC1` [MC-EOC317, EOC317]: 1. Take `C=CC(=O)Nc1cc2c(Nc3ccc(F)c(Cl)c3)ncnc2cc1OC` [MC-PF-6274484, PF-6274484]: the “Duplicate of Duplicate of Hits: No CPE” value is given as 1. The same measure for `C=CC(=O)Nc1cccc(Oc2nc(Nc3ccc(N4CCN(C)CC4)cc3)ncc2Cl)c1` [NKIL-WZ3146, WZ3146]: 1; for `C=CC(=O)Nc1cc(Nc2nccc(-c3cn(C4CC4)c4ccccc34)n2)c(OC)cc1N(C)CCN(C)C` [MC-Almonertinib, Almonertinib]: 1; for KIRA-7 [MC-KIRA-7]: 1. Turning to `CN(C)C/C=C/C(=O)Nc1cc2c(Nc3ccc(F)c(Cl)c3)ncnc2cc1O[C@H]1CCOC1.O=C(O)/C=C\C(=O)O.O=C(O)/C=C\C(=O)O` [MC-Afatinib (dimaleate), Afatinib (dimaleate)], the “Duplicate of Duplicate of Hits: No CPE” value is 1.

Consider `COc1cc2ncnc(Nc3ccc(F)c(Cl)c3)c2cc1NC(=O)/C=C/CN1CCCCC1` [NKIL-Dacomitinib (PF299804, PF299), Dacomitinib], for which the “Duplicate of Duplicate of Hits: No CPE” value stood at 1. For `C=CC(=O)Nc1cccc(-c2c(-c3ccccc3)oc3ncnc(N[C@H](CO)c4ccccc4)c23)c1` [MC-EGFR-IN-9, EGFR-IN-9] the value was 1; for `Cc1c[nH]c2nc(Nc3ccc(N4CCN(C)CC4)c(F)c3)nc(-c3cccc(CC#N)c3)c12` [NKIL-SGI-7079, SGI-7079], 1; for `N[C@@H]1c2ccccc2OC12CCN(c1cnc3c(N4CCCc5ncccc54)n[nH]c3n1)CC2` [MC-Migoprotafib, Migoprotafib], 1. For `C=CC(=O)Nc1cc(Nc2nccc(-c3cn(C)c4ccccc34)n2)c(OC)cc1N(C)CCNC.CS(=O)(=O)O.CS(=O)(=O)O.CS(=O)(=O)O` [MC-AZ7550 Mesylate, AZ7550 Mesylate] the value was 1; for `CN(C)C/C=C/C(=O)Nc1cccc(-c2c(-c3ccccc3)oc3ncnc(N[C@H](CO)c4ccccc4)c23)c1` [MC-DBPR112, DBPR112], 1; for `C=CC(=O)Nc1cc(Nc2ncc(C(=O)OC(C)C)c(-c3cn(C)c4ccccc34)n2)c(OC)cc1N(C)CCN(C)C.O=C(O)CCC(=O)O` [MC-Mobocertinib (succinate), Mobocertinib (succinate)], 1.

For `C=CC(=O)Nc1cccc(Oc2nc(Nc3ccc(N4CCN(C)CC4)c(F)c3)nc3[nH]ccc23)c1` [MC-Avitinib, Avitinib], the “Duplicate of Duplicate of Hits: No CPE” value amounted to 1. As to SBI-581 [MC-SBI-581], the “Duplicate of Duplicate of Hits: No CPE” value amounted to 1.

On to `C=CC(=O)Nc1cccc(Oc2nc(Nc3ccc(N4CCN(C)CC4)cc3)nc3ccoc23)c1` [MC-Poseltinib, Poseltinib], for which the “Duplicate of Duplicate of Hits: No CPE” value is recorded as 1. In the case of `C=CC(=O)Nc1cc(Nc2nccc(Nc3cc(Cl)c(F)cc3C(C)(C)O)n2)c(OC)cc1N1CC[C@@H](N(C)C)C1` [MC-Sunvozertinib, Sunvozertinib], the “Duplicate of Duplicate of Hits: No CPE” value is recorded as 1.

In the case of Gilmelisib [MC-Gilmelisib], the “Duplicate of Duplicate of Hits: No CPE” value was 1. Regarding `CS[C@@]1(C(=O)Nc2ccc3[nH]nc(-c4ccc(OC(C)C)nc4)c3c2)CCN(CC(=O)N2CC=C(c3ccc(-c4ncn(C)n4)cc3)CC2)C1` [MC-MK-8353, MK-8353], the “Duplicate of Duplicate of Hits: No CPE” value is recorded as 1.

As for `C=CC(=O)Nc1cccc(Nc2nc(Nc3ccc(NC4CN(CCF)C4)cc3OC)ncc2C(F)(F)F)c1` [NKIL-CNX-2006, CNX-2006], the “Duplicate of Duplicate of Hits: No CPE” value is reported as 1.

Turning to “FGFR1/DDR2 inhibitor 1 [MC-FGFR1/DDR2 inhibitor 1]”, the “Duplicate of Duplicate of Hits: No CPE” value is recorded as 1. Turning to `COc1cc2ncnc(Nc3ccc(O)c(Br)c3)c2cc1OC` [NKIL-WHI-P154, WHI-P154], the “Duplicate of Duplicate of Hits: No CPE” value turned out to be 1.

Take `C=CC(=O)Nc1ccc2ncnc(Nc3cccc(Br)c3)c2c1` [NKIL-PD168393, PD168393]: the “Duplicate of Duplicate of Hits: No CPE” value came out at 1. The same measure for `C=CC(=O)Nc1cccc(Oc2nc(Nc3ccc(N4CCN(C)CC4)c(F)c3)nc3[nH]ccc23)c1.O=C(O)/C=C\C(=O)O` [MC-Avitinib (maleate), Avitinib (maleate)]: 1; for `COc1ncc(-c2ccc3nccc(C#CCN4CCN(S(C)(=O)=O)CC4)c3c2)cc1NS(=O)(=O)c1ccc(F)cc1F` [MC-NSC781406, NSC781406]: 1; for `Cn1c(=O)c(F)c(Nc2ccc(I)cc2F)c2c(=O)n(C[C@@H](O)CO)cnc21` [NKIL-TAK-733, TAK-733]: 1. For `Cn1nccc1Nc1nccc(-c2cc3c(s2)C(C)(C)N(CCN2CCOCC2)C3=O)n1` [MC-Temuterkib, Temuterkib] the value was 1; for `C=CC(=O)N[C@@H]1CN(c2nc(Nc3cn(C)nc3OC)c3ncn(C)c3n2)C[C@H]1F` [MC-Mavelertinib, Mavelertinib], 1.

(Values after publication doi:10.1101/2025.05.02.651913 (bioRxiv, 2025).)
